What follows are compounds tested on Human primary T cells (assay: IL-2 ELISA, human primary T cell, anti-CD3+CD28+ (whole cell assay)). Conditions: Homo sapiens, T-cell, 24 h, human primary T cells stimulated with anti-CD3 + anti-CD28, 24 hours.
Format: cell-based
Experimental: (§1) Human primary T cells were prepared as follows. Whole blood was obtained from a healthy volunteer, mixed 1:1 with PBS, layered on to Ficoll Hypaque (Amersham Pharmacia Biotech, Piscataway, N.J., Catalog #17-1440-03) in 2:1 blood/PBS:ficoll ratio and centrifuged for 30 minutes at 4° C. at 1750 rpm. The cells at the serum:ficoll interface were recovered and washed twice with 5 volumes of PBS. These freshly isolated human peripheral blood mononuclear cells were cultured in Yssel's medium containing 40 U/mL IL2 in a flask pre-coated with 1 μg/mL αCD3 and 5 μg/mL αCD28 (Anti-Human CD3, BD Pharmingen Catalog #555336, Anti-Human CD28, Beckman Coulter Catalog #IM1376). The cells were stimulated for 3-4 days, then transferred to a fresh flask and maintained in RPMI (RPMI-1640 with L-Glutamine; Mediatech, Inc., Herndon Va., cat. #10-040-CM) with 10% FBS and 40 U/mL IL-2. The primary T-cells were then washed twice with PBS to remove the IL-2.
Human primary T cells (100,000 cells per well) were pre-incubated with or without test compound in Yssel's medium for 1 hr at 37° C. Cells were then stimulated by transferring them to round-bottom 96-well plates pre-coated with 1 μg/ml μCD3 and 5 μg/ml μCD28. For counter assay, cells were instead stimulated by adding 8× stock solutions of PMA and ionomycin in Yssels (for final concentrations of 0.5 ng/ml PMA and 0.1 μM ionomycin, both from Calbiochem). Cells were incubated at 37° C. for 24 hours before 100 μL supernatants were harvested for quantification of IL-2 by ELISA using Human IL-2 Duoset ELISA Kit from R and D Systems, Cat. #DY202E.
as §1, with “Human primary T cell isolation and culture: Human primary” for “Human primary”, “for 30 min at 4°” for “for 30 minutes at 4°”, “at the serum: ficoll interface were” for “at the serum:ficoll interface were”
Primary T cell stimulation and IL2 ELISA: Human primary T cells (100,000 cells per well) were pre-incubated with or without test compound in Yssel's medium for 1 hr at 37° C. Cells were then stimulated by transferring them to round-bottom 96-well plates pre-coated with 1 μg/ml αCD3 and 5 μg/ml αCD28. For counter assay, cells were instead stimulated by adding 8× stock solutions of PMA and ionomycin in Yssels (for final concentrations of 0.5 ng/ml PMA and 0.1 μM ionomycin, both from Calbiochem). Cells were incubated at 37° C. for 24 hours before 100 μL supernatants were harvested for quantification of IL-2 by ELISA using Human IL-2 Duoset ELISA Kit from R and D Systems, Cat. #DY202E.

IC50 | SMILES
250 to 500 nM | [2H]C([2H])([2H])N1C(C)(C)CC(Nc2nc(Nc3ccc(OC4CCN(C(C)C)CC4F)c(OC(F)F)c3)ncc2F)CC1(C)C (centres unmarked) [III-112, N2-(3-(difluoromethoxy)-4-(3-fluoro-1-isopropylpiperidin-4-yloxy)phenyl)-5-fluoro-N4-(1-trideuteromethyl-2,2,6,6-tetramethylpiperidin-4-yl)pyrimidine-2,4-diamine]
500 to 1000 nM | CN1C(C)(C)CC(Nc2nc(Nc3cccc(-n4cccn4)c3)ncc2F)CC1(C)C [Compound I-22, N2-(3-(1H-pyrazol-1-yl)phenyl)-5-fluoro-N4-(1,2,2,6,6-pentamethylpiperidin-4-yl)pyrimidine-2,4-diamine]
500 to 1000 nM | CC(C)Oc1ncc(Nc2ncc(F)c(NC3CC(C)(C)N(C)C(C)(C)C3)n2)cc1-c1nnnn1C(C)C [Compound I-131, 5-fluoro-N2-(6-isopropoxy-5-(1-isopropyl-1H-tetrazol-5-yl)pyridin-3-yl)-N4-(1,2,2,6,6-pentamethylpiperidin-4-yl)pyrimidine-2,4-diamine]
< 250 nM | CC(C)n1nnnc1-c1cccc(Nc2ncc(F)c(NC3CC(C)(C)N(C)C(C)(C)C3)n2)c1 [III-70, 5-fluoro-N2-(3-(1-isopropyl-1H-tetrazol-5-yl)phenyl)-N4-(1,2,2,6,6-pentamethylpiperidin-4-yl)pyrimidine-2,4-diamine]
> 1000 nM | CC(C)Nc1cc(Nc2ncc(F)c(NC3CC(C)(C)NC(C)(C)C3)n2)ccc1OC(C)C [III-61, 5-fluoro-N2-(4-isopropoxy-3-(isopropylamino)phenyl)-N4-(2,2,6,6-tetramethylpiperidin-4-yl)pyrimidine-2,4-diamine]
250 to 500 nM | CC(=O)N1CCC(Oc2ccc(Nc3ncc(F)c(NC4CC(C)(C)N(C)C(C)(C)C4)n3)cc2OC(F)F)CC1 [III-45, 1-(4-(2-(difluoromethoxy)-4-(5-fluoro-4-(1,2,2,6,6-pentamethylpiperidin-4-ylamino)pyrimidin-2-ylamino)phenoxy)piperidin-1-yl)ethanone]
500 to 1000 nM | CN1C(C)(C)CC(Nc2nc(Nc3ccc(OC4CCN(CCO)CC4)c(F)c3)ncc2F)CC1(C)C [III-58, 2-(4-(2-fluoro-4-(5-fluoro-4-(1,2,2,6,6-pentamethylpiperidin-4-ylamino)pyrimidin-2-ylamino)phenoxy)piperidin-1-yl)ethanol]
250 to 500 nM | CC1CC(Nc2nc(Nc3cccc(-n4cnnn4)c3)ncc2F)CC(C)N1C1CC1 (centres unmarked) [III-5, N^2-(3-(1H-tetrazol-1-yl)phenyl)-N4-(1-cyclopropyl-2,6-dimethylpiperidin-4-yl)-5-fluoropyrimidine-2,4-diamine]
< 250 nM | Cn1nnnc1-c1cc(Nc2ncc(F)c(NC3CC(C)(C)NC(C)(C)C3)n2)ccc1Cl [III-130, N2-(4-chloro-3-(1-methyl-1H-tetrazol-5-yl)phenyl)-5-fluoro-N4-(2,2,6,6-tetramethylpiperidin-4-yl)pyrimidine-2,4-diamine]
500 to 1000 nM | Cc1ccc(C)n1-c1cc(Nc2ncc(F)c(NC3CC(C)(C)N(C)C(C)(C)C3)n2)cnc1OC(C)C [Compound I-115, 5-fluoro-N2-(6-isopropoxy-5-(2,5-dimethyl-1H-pyrrol-1-yl)pyridin-3-yl)-N4-(1,2,2,6,6-pentamethylpiperidin-4-yl)pyrimidine-2,4-diamine]
< 250 nM | Cc1nnnn1-c1cc(Nc2ncc(F)c(NC3CC(C)(C)NC(C)(C)C3)n2)cnc1OC(C)C [Compound I-114, 5-fluoro-N2-(6-isopropoxy-5-(5-methyl-1H-tetrazol-1-yl)pyridin-3-yl)-N4-(2,2,6,6-tetramethylpiperidin-4-yl)pyrimidine-2,4-diamine]
< 250 nM | CC(C)Oc1ccc(Nc2ncc(F)c(NC3CC(C)(C)NC(C)(C)C3)n2)cc1-c1nnnn1C [III-122, 5-fluoro-N2-(4-isopropoxy-3-(1-methyl-1H-tetrazol-5-yl)phenyl)-N4-(2,2,6,6-tetramethylpiperidin-4-yl)pyrimidine-2,4-diamine]
500 to 1000 nM | CC(=O)N1CCC(Oc2c(F)cc(Nc3ncc(F)c(NC4CC(C)(C)N(C)C(C)(C)C4)n3)cc2F)CC1 [III-91, 1-(4-(2,6-difluoro-4-(5-fluoro-4-(1,2,2,6,6-pentamethylpiperidin-4-ylamino)pyrimidin-2-ylamino)phenoxy)piperidin-1-yl)ethanone]
> 1000 nM | Cc1nnnn1-c1cc(Nc2ncc(F)c(NC3CC(C)(C)N(C)C(C)(C)C3)n2)cnc1O [Compound I-112, 5-(4-(1,2,2,6,6-pentamethylpiperidin-4-ylamino)-5-fluoropyrimidin-2-ylamino)-3-(5-methyl-1H-tetrazol-1-yl)pyridin-2-ol]
250 to 500 nM | CC(C)N1CCC(Oc2ccc(Nc3ncc(F)c(NC4CC(C)(C)NC(C)(C)C4)n3)cc2F)CC1 [III-19, 5-fluoro-N2-(3-fluoro-4-(1-isopropylpiperidin-4-yloxy)phenyl)-N4-(2,2,6,6-tetramethylpiperidin-4-yl)pyrimidine-2,4-diamine]
< 250 nM | CC(C)N1CCC(Oc2ccc(Nc3ncc(F)c(NC4CC(C)(C)N(C)C(C)(C)C4)n3)cc2C(F)(F)F)CC1 [III-101, 5-fluoro-N2-(4-(1-isopropylpiperidin-4-yloxy)-3-(trifluoromethyl)phenyl)-N4-(1,2,2,6,6-pentamethylpiperidin-4-yl)pyrimidine-2,4-diamine]
500 to 1000 nM | CC1(C)CC(Nc2nc(Nc3cc(F)cc(OCCCn4cccc4)c3)ncc2F)CC(C)(C)N1 [Compound I-35, N2-(3-(3-(1H-pyrrol-1-yl)propoxy)-5-fluorophenyl)-5-fluoro-N4-(2,2,6,6-tetramethylpiperidin-4-yl)pyrimidine-2,4-diamine]
> 1000 nM | CC1(C)CC(Nc2nc(Nc3cccc(-n4ccc(C(F)(F)F)n4)c3)ncc2F)CC(C)(C)N1 [Compound I-3, 5-fluoro-N2-(3-(3-(trifluoromethyl)-1H-pyrazol-1-yl)phenyl)-N4-(2,2,6,6-tetramethylpiperidin-4-yl)pyrimidine-2,4-diamine]
< 250 nM | Cc1nnnn1-c1cc(Nc2ncc(F)c(NC3CC(C)(C)N(C)C(C)(C)C3)n2)cnc1OC(C)C [Compound I-113, 5-fluoro-N2-(6-isopropoxy-5-(5-methyl-1H-tetrazol-1-yl)pyridin-3-yl)-N4-(1,2,2,6,6-pentamethylpiperidin-4-yl)pyrimidine-2,4-diamine]
< 250 nM | CC1(C)CC(Nc2nc(Nc3ccc4c(c3)OC(C)(C)C(=O)N4CCF)ncc2F)CC(C)(C)N1 [II-9, N2-[2,2-Dimethyl-4-(2-fluoroethyl)-1,4-benzoxazin-3-one-7-yl]-5-fluoro-N4-(2,2,6,6-tetramethylpiperidin-4-yl)-2,4-pyrimidinediamine]
250 to 500 nM | CC(C)Oc1c(F)cc(Nc2ncc(F)c(NC3CC(C)(C)NC(C)(C)C3)n2)cc1-c1nnnn1C [III-142, 5-fluoro-N2-(3-fluoro-4-isopropoxy-5-(1-methyl-1H-tetrazol-5-yl)phenyl)-N4-(2,2,6,6-tetramethylpiperidin-4-yl)pyrimidine-2,4-diamine]

Same assay, conditions: human primary T cells stimulated with anti-CD3 + anti-CD28, 24 hours

IC50 | SMILES
< 250 nM | CN1C(C)(C)CC(Nc2nc(Nc3ccc(F)c(-n4cnnn4)c3)ncc2C#N)CC1(C)C [Compound I-73, 5-cyano-N2-[4-fluoro-3-(1H-tetrazol-1-yl)]phenyl-N4-(1,2,2,6,6-pentamethylpiperidin-4-yl)-2,4-pyrimidinediamine]
< 250 nM | CC(C)N1CCC(Oc2ccc(Nc3ncc(F)c(NC4CC(C)(C)NC(C)(C)C4)n3)cc2OC(F)F)C(F)C1 (centres unmarked) [III-106, N2-(3-(difluoromethoxy)-4-(3-fluoro-1-isopropylpiperidin-4-yloxy)phenyl)-5-fluoro-N4-(2,2,6,6-tetramethylpiperidin-4-yl)pyrimidine-2,4-diamine]

From US9149475B2, “Protein kinase C inhibitors and uses thereof” (Rigel Pharmaceuticals, Inc., priority 2009, dated 2015)
